In patent publication US20120322699A1, “Method of Preventing Scale Formation During Enhanced Oil Recovery” (Chevron U.S.A. Inc., priority 2011, published 2012):

Experiments:
[1] = Final bottle tests of formulations at lower agent concentrations with scale inhibitors; format: physicochemical
Procedure: Based on the above results, two commercial scale inhibitors were combined in synthetic brine with the metal complexing agents. The pH of the solutions was raised by addition of 1.0M NaOH to simulate the basic environment during an alkaline flood. The following procedure was used to prepare the aqueous solutions: • 1. Synthetic field brine was prepared by temporarily excluding the HCO3^−. • 2. Scale inhibitor was added and the solution was allowed to equilibrate after thorough mixing. • 3. Metal complexing agent was added to the brine above in concentrations near half of the stoichiometrically required amount and the solution was allowed to equilibrate after thorough mixing. • 4. NaHCO3 was added and the brine solutions were equilibrated. • 5.

[2] = Bottle test of scale prevention capacity of metal complexing agents; format: physicochemical
Procedure: Scale prevention capacity of the metal complexing agents were then tested using the following bottle test procedure: • 1. Synthetic field brine was prepared with NaCl and NaHCO3 (constituents of the brine) but CaCl2 and MgCl2 content was temporarily withheld to avoid premature scaling. • 2. Metal complexing agent was added to the brine above in a stoichiometrically required amount and at higher concentrations and the solution was allowed to equilibrate after thorough mixing. • 3. CaCl2 and MgCl2 were added and the brine solutions were equilibrated. • 4. In a preliminary test, the impact of pH alone was evaluated. […] If no scale was observed, step 4 was repeated with addition of Na2CO3.

[3] = Initial screening of complexing agents and scale inhibitors with synthetic brine; format: physicochemical; details: for Maximum pH: complexing agents, synthetic brine 1,000 ppm Ca2+/Mg2+, 450 ppm HCO3-
Procedure: Eight different metal complexing agents and five commercial scale inhibitors were tested according to known laboratory methods with a synthetic brine containing 1,000 ppm of divalent cation (Ca^2+/Mg^2+) and 450 ppm of HCO3^−. Among the complexing agents tested, six were organic ligands with carboxylate moieties and two were inorganic phosphates. The five scale inhibitors tested were commercial products supplied by Nalco Chemicals based on phosphonate, acrylate and sulfonate.

[4] = Initial bottle tests with BASF complexing agents without changing the pH; format: physicochemical; details: equimolar concentration (7,350 ppm) with the calcium ions, hard brine
Description: The initial bottles tests were designed at the reported calcium binding capacity of the agents without changing the pH.

[5] = at 25° C.; cited from earlier work
[6] = agent 1.1 %, alkali Na2B2O4, pH 9.97
[7] = agent 1.1 %, alkali Na2B2O4, pH 10.10
[8] = agent 1.1 %, alkali Na2B2O4, pH 10.15
[9] = agent 1.1 %, alkali Na2CO3, pH 10.60
[10] = agent 1.1 %, alkali Na2CO3, pH 10.69
[11] = agent 1.1 %, alkali Na2CO3, pH 10.77
[12] = agent 0.8 %, alkali Na2B2O4, pH 10.10
[13] = agent 1.5 %, alkali Na2B2O4, pH 10.10
[14] = agent 1.5 %, alkali Na2CO3, pH 10.10
[15] = agent 1.5 %, alkali NaOH, pH 10.20
[16] = agent 1.5 %, alkali NaOH, pH 8.80

SMILES: O=C(O)CN(CCN(CC(=O)O)CC(=O)O)CC(=O)O [EDTA, ethylenediaminetetraacetic acid]
- complexing agent concentration when used with scale inhibitor ([1]; in combination with 200 ppm VX9400): 7,500 ppm

SMILES: CC(=O)ON(CCN(OC(C)=O)OC(C)=O)OC(C)=O.[Na] [EDTA-Na4, sodium ethylenediamine tetraacetate]
- Status (next day) [2, 6]: clear
- Status (same day) [2, 6]: clear
- Status (next day) [2, 7]: clear
- Status (same day) [2, 7]: clear
- Status (next day) [2, 8]: clear
- Status (same day) [2, 8]: clear
- Status (next day) [2, 9]: clear
- Status (same day) [2, 9]: clear
- Status (next day) [2, 10]: clear
- Status (same day) [2, 10]: clear
- Status (next day) [2, 11]: clear
- Status (same day) [2, 11]: clear
- pH value up to which effective ([3]; 11,000 ppm in hard field brine (equimolar Ca:EDTA)): ≤ 10.7
- Maximum pH [3]: 10.7

SMILES: CC(C(=O)O)N(CC(=O)O)CC(=O)O (stereo not shown) [MGDA, methylglycinediacetic acid]
- pH value up to which scaling prevented [4]: ≤ 9.9
- complexing agent concentration when used with scale inhibitor ([1]; in combination with 500 ppm VX9400): 5,500 ppm

SMILES: O=C([O-])CN(CC(=O)[O-])CC(=O)[O-].[Na+].[Na+].[Na+] [NTA-Na3, sodium nitrilotriacetate]
- Status (next day) ([2]; agent 0.8 %, no alkali added): scale
- Status (same day) ([2]; agent 0.8 %, no alkali added): scale
- Status (next day) ([2]; agent 1.1 %, no alkali added): scale
- Status (same day) ([2]; agent 1.1 %, no alkali added): scale
- Status (next day) ([2]; agent 1.5 %, no alkali added): scale
- Status (same day) ([2]; agent 1.5 %, no alkali added): scale

SMILES: O=C([O-])CC(O)(CC(=O)[O-])C(=O)[O-].[Na+].[Na+].[Na+] [Sodium citrate, sodium citrate]
- overall assessment from bottle test results [2]: not a successful selection
- Status (next day) [2, 12]: scale
- Status (same day) [2, 12]: clear
- Status (next day) [2, 13]: scale
- Status (same day) [2, 13]: clear
- Status (next day) [2, 14]: scale
- Status (same day) [2, 14]: scale

SMILES: O.O=C([O-])/C=C\C(=O)[O-].[Na+].[Na+] [Sodium maleate, sodium maleate monohydrate]
- overall assessment from bottle test results [2]: promising results
- Status (next day) [2, 15]: clear
- Status (same day) [2, 15]: clear
- Maximum pH [3]: 10.2

SMILES: O=P(O)(O)OP(=O)(O)OP(=O)(O)O [Sodium tripolyphosphate]
- Status (next day) ([2]; agent 1.15 %, no alkali added): scale
- Status (same day) ([2]; agent 1.15 %, no alkali added): scale
- Status (next day) ([2]; agent 1.5 %, no alkali added): scale
- Status (same day) ([2]; agent 1.5 %, no alkali added): scale
- Status (next day) ([2]; agent […], no alkali added): scale
- Status (same day) ([2]; agent […], no alkali added): scale
- water solubility [5]: 14.5 g/100 mL

SMILES: O=P([O-])([O-])OP(=O)([O-])[O-].[K+].[K+].[K+].[K+] [Tetrapotassium pyrophosphate]
- Status (next day) [2, 16]: scale
- Status (same day) [2, 16]: scale
